Reference: EPA's ToxValDB 9.5 (doi:10.2903/j.efsa.2009.201r)

What was measured:
[1] = tested on: Anas platyrhynchos; conditions: oral, mortality
[2] = tested on: Apis mellifera; conditions: acute; duration: 48 hours; dermal; mortality
[3] = tested on: Canidae; conditions: chronic; duration: 1 years; oral; Dog Other; body weight
[4] = tested on: Colinus virginianus
[5] = tested on: Daphnia magna; conditions: chronic/long-term; duration: 21 days; growth
[6] = tested on: Oncorhynchus mykiss
[7] = tested on: Rattus norvegicus; conditions: for NOAEL: chronic
[8] = tested on: Tagia sp.; conditions: mortality

With `COc1nc(C)nc(NC(=O)NS(=O)(=O)c2ccccc2Cl)n1` [Chlorsulfuron] the LD50 ([1]; acute, unspecified) was > 5000 mg/kg-day, the LC50 ([1]; short-term, feed) was > 634 mg/kg-day and the LD50 [2] was > 100 µg/piece. For the same molecule, the NOAEL [3] was 60.6 mg/kg-day, the LD50 ([4]; acute, oral, mortality) was > 5000 mg/kg-day and the NOEL ([4]; reproduction developmental) was 28 mg/kg-day. For the same molecule, the NOEC [5] was 12 mg/L, the LC50 ([6]; acute, duration: 96 hours, mortality) was > 122 µg/mL and the NOEC ([6]; chronic/long-term, duration: 77 days, growth) was 32 mg/L. For the same molecule, the LD50 ([7]; acute, oral, mortality) was > 5540 mg/kg-day, the NOAEL [7] was 75 mg/kg-day and the NOAEL ([7]; duration: 2 years, histopathology: neoplastic) was 20 mg/kg-day. For the same molecule, the LC50 ([8]; acute, duration: 14 days) was > 750 mg/kg and the NOEC ([8]; chronic/long-term, duration: 56 days) was 188 mg/kg.
